Experimental data reported in PMC7979765, “trans-Translation inhibitors bind to a novel site on the ribosome and clear Neisseria gonorrhoeae in vivo” (Nature Communications, 2021).
Values joined by “and” are separate entries in the source; they are usually repeats but may differ in a detail not shown here. Equal entries are not always repeated. Where two headings read alike, the source gives them in different places.

Test: Pharmacokinetic analyses in mice (PO suspension, IV, SC)
Format: in vivo, mouse
Method: Female CD-1 mice as above were fasted for 2 h prior, and 4 h after dosing. […] […], 3 mice from each group were euthanized by CO2 inhalation, blood was collected by cardiac puncture into K2EDTA collection tubes, and protein was precipitated and analysed by LC/MS-MS for plasma concentrations of MBX-4132. Data were analysed using WinNonLin.
[…] At 0.083, 0.5, 1, 4, 8 and 24 h post dose, blood was collected from 3 mice/group by tail vein or facial bleed into K2EDTA collection tubes, and protein was precipitated and analysed by LC/MS-MS for plasma concentrations of MBX-4132. Sampling was performed serially, with each mouse contributing sample at all time points. Data were analysed using WinNonLin.

## O=C(Nc1nnc(-c2ccc(F)cc2)o1)N1CCc2ccccc2C1 [MBX 4132]
IV (10 mg/kg), 0.083 hrs, individual animals, 10 mg/kg
  MBX 4132 Concentrations in Mouse Plasma: 58700 ng/mL and 65700 ng/mL
IV (10 mg/kg), 0.5 hrs, individual animals, 10 mg/kg
  MBX 4132 Concentrations in Mouse Plasma: 36200 ng/mL and 32000 ng/mL
IV (10 mg/kg), 1 hrs, individual animals, 10 mg/kg
  MBX 4132 Concentrations in Mouse Plasma: 22900 ng/mL and 20200 ng/mL
IV (10 mg/kg), 4 hrs, individual animals, 10 mg/kg
  MBX 4132 Concentrations in Mouse Plasma: 8580 ng/mL and 6390 ng/mL
IV (10 mg/kg), 8 hrs, individual animals, 10 mg/kg
  MBX 4132 Concentrations in Mouse Plasma: 3980 ng/mL and 3290 ng/mL
IV (10 mg/kg), 24 hrs, individual animals, 10 mg/kg
  MBX 4132 Concentrations in Mouse Plasma: 293 ng/mL and 149 ng/mL and 67.4 ng/mL
PO (10 mg/kg susp.), 0.25 hrs, individual animals, 10 mg/kg
  MBX 4132 Concentrations in Mouse Plasma: 15389 ng/mL and 9102 ng/mL
PO (10 mg/kg susp.), 0.5 hrs, individual animals, 10 mg/kg
  MBX 4132 Concentrations in Mouse Plasma: 16019 ng/mL and 12183 ng/mL
PO (10 mg/kg susp.), 1 hrs, individual animals, 10 mg/kg
  MBX 4132 Concentrations in Mouse Plasma: 16437 ng/mL and 15902 ng/mL
PO (10 mg/kg susp.), 2 hrs, individual animals, 10 mg/kg
  MBX 4132 Concentrations in Mouse Plasma: 10997 ng/mL and 18067 ng/mL
PO (10 mg/kg susp.), 4 hrs, individual animals, 10 mg/kg
  MBX 4132 Concentrations in Mouse Plasma: 13379 ng/mL and 14121 ng/mL
PO (10 mg/kg susp.), 8 hrs, individual animals, 10 mg/kg
  MBX 4132 Concentrations in Mouse Plasma: 11230 ng/mL and 9243 ng/mL
PO (10 mg/kg susp.), 24 hrs, individual animals
  MBX 4132 Concentrations in Mouse Plasma: <62.5 ng/mL
PO (10 mg/kg), 0.083 hrs, individual animals, 10 mg/kg
  MBX 4132 Concentrations in Mouse Plasma: 809 ng/mL and 1080 ng/mL and 1900 ng/mL
PO (10 mg/kg), 0.5 hrs, individual animals, 10 mg/kg
  MBX 4132 Concentrations in Mouse Plasma: 881 ng/mL and 1440 ng/mL and 1770 ng/mL
PO (10 mg/kg), 1 hrs, individual animals, 10 mg/kg
  MBX 4132 Concentrations in Mouse Plasma: 1490 ng/mL and 1730 ng/mL
PO (10 mg/kg), 4 hrs, individual animals, 10 mg/kg
  MBX 4132 Concentrations in Mouse Plasma: 1960 ng/mL and 2880 ng/mL
PO (10 mg/kg), 8 hrs, individual animals, 10 mg/kg
  MBX 4132 Concentrations in Mouse Plasma: 4940 ng/mL and 6040 ng/mL
PO (10 mg/kg), 24 hrs, individual animals, 10 mg/kg
  MBX 4132 Concentrations in Mouse Plasma: 66.5 ng/mL and 26.0 ng/mL and 81.5 ng/mL
SC (10 mg/kg), 0.083 hrs, individual animals, 10 mg/kg
  MBX 4132 Concentrations in Mouse Plasma: 738 ng/mL and 530 ng/mL and 1090 ng/mL
SC (10 mg/kg), 0.5 hrs, individual animals, 10 mg/kg
  MBX 4132 Concentrations in Mouse Plasma: 3760 ng/mL and 4140 ng/mL
SC (10 mg/kg), 1 hrs, individual animals, 10 mg/kg
  MBX 4132 Concentrations in Mouse Plasma: 3190 ng/mL and 3390 ng/mL
SC (10 mg/kg), 4 hrs, individual animals, 10 mg/kg
  MBX 4132 Concentrations in Mouse Plasma: 2890 ng/mL and 2390 ng/mL
SC (10 mg/kg), 8 hrs, individual animals, 10 mg/kg
  MBX 4132 Concentrations in Mouse Plasma: 2800 ng/mL and 2480 ng/mL
SC (10 mg/kg), 24 hrs, individual animals, 10 mg/kg
  MBX 4132 Concentrations in Mouse Plasma: 599 ng/mL and 627 ng/mL
SC (25 mg/kg), 0.083 hrs, individual animals, 25 mg/kg
  MBX 4132 Concentrations in Mouse Plasma: 1190 ng/mL and 2170 ng/mL
SC (25 mg/kg), 0.5 hrs, individual animals, 25 mg/kg
  MBX 4132 Concentrations in Mouse Plasma: 3170 ng/mL and 5250 ng/mL and 6610 ng/mL
SC (25 mg/kg), 1 hrs, individual animals, 25 mg/kg
  MBX 4132 Concentrations in Mouse Plasma: 5270 ng/mL and 5450 ng/mL
SC (25 mg/kg), 4 hrs, individual animals, 25 mg/kg
  MBX 4132 Concentrations in Mouse Plasma: 3050 ng/mL and 3600 ng/mL
SC (25 mg/kg), 8 hrs, individual animals, 25 mg/kg
  MBX 4132 Concentrations in Mouse Plasma: 3850 ng/mL and 4860 ng/mL
SC (25 mg/kg), 24 hrs, individual animals, 25 mg/kg
  MBX 4132 Concentrations in Mouse Plasma: 2190 ng/mL and 1680 ng/mL
female, CD-1, mouse, in vivo, iv, 10 mg/kg, IV (10 mg/kg), 24 hrs, mean of 3 animals, read-out: MBX 4132 Concentrations in Mouse Plasma, Mean
  concentration at 24 h: 170 ng/mL
female, CD-1, mouse, in vivo, po, 10 mg/kg, PO (10 mg/kg susp.), 0.25 hrs, individual animals, read-out: MBX 4132 Concentrations in Mouse Plasma
  concentration at 0.25 h: 14300 ng/mL
female, CD-1, mouse, in vivo, po, 10 mg/kg, PO (10 mg/kg susp.), 0.25 hrs, mean of 3 animals, read-out: MBX 4132 Concentrations in Mouse Plasma, Mean
  concentration at 0.25 h: 12900 ng/mL
female, CD-1, mouse, in vivo, po, 10 mg/kg, PO (10 mg/kg susp.), 0.5 hrs, individual animals, read-out: MBX 4132 Concentrations in Mouse Plasma
  concentration at 0.5 h: 13900 ng/mL
female, CD-1, mouse, in vivo, po, 10 mg/kg, PO (10 mg/kg susp.), 0.5 hrs, mean of 3 animals, read-out: MBX 4132 Concentrations in Mouse Plasma, Mean
  concentration at 0.5 h: 14000 ng/mL
female, CD-1, mouse, in vivo, po, 10 mg/kg, PO (10 mg/kg susp.), 1 hrs, individual animals, read-out: MBX 4132 Concentrations in Mouse Plasma
  concentration at 1 h: 12100 ng/mL
female, CD-1, mouse, in vivo, po, 10 mg/kg, PO (10 mg/kg susp.), 1 hrs, mean of 3 animals, read-out: MBX 4132 Concentrations in Mouse Plasma, Mean
  concentration at 1 h: 14800 ng/mL
female, CD-1, mouse, in vivo, po, 10 mg/kg, PO (10 mg/kg susp.), 2 hrs, individual animals, read-out: MBX 4132 Concentrations in Mouse Plasma
  concentration at 2 h: 15000 ng/mL
female, CD-1, mouse, in vivo, po, 10 mg/kg, PO (10 mg/kg susp.), 2 hrs, mean of 3 animals, read-out: MBX 4132 Concentrations in Mouse Plasma, Mean
  concentration at 2 h: 14700 ng/mL
female, CD-1, mouse, in vivo, po, 10 mg/kg, PO (10 mg/kg susp.), 4 hrs, individual animals, read-out: MBX 4132 Concentrations in Mouse Plasma
  concentration at 4 h: 13300 ng/mL
female, CD-1, mouse, in vivo, po, 10 mg/kg, PO (10 mg/kg susp.), 4 hrs, mean of 3 animals, read-out: MBX 4132 Concentrations in Mouse Plasma, Mean
  concentration at 4 h: 13600 ng/mL
female, CD-1, mouse, in vivo, po, 10 mg/kg, PO (10 mg/kg susp.), 8 hrs, individual animals, read-out: MBX 4132 Concentrations in Mouse Plasma
  concentration at 8 h: 9290 ng/mL
